These are literature values, as cited in patent US12096767B2, “Residual disinfectant composition” (Kimberly-Clark Worldwide, Inc., priority 2015, dated 2024).

The conditions of the data set: determined at a temperature of 25° C.

With `O=CC(=O)O` [glyoxylic acid], the pka1 is recorded as 3.18.
